Test results: patent publication US10064867B2, “Hsp90 inhibitors” (Sloan-Kettering Institute for Cancer Research, priority 2011, dated 2018)
Read-outs that look alike come from different tables or passages of the source.

Assays:
Hsp90 = Hsp90 Binding Assay (fluorescence polarization, cy3B-GM displacement, SKBr3 lysate); parameters: species or system human; details: read-out: SKBr3 Binding Affinity
hERG = hERG (Homo sapiens, UniProt Q12809); experiment: hERG binding
Excerpt: In interpreting these test results, it will be appreciated that binding to Hsp90 for activity in the treatment of cancer or neurodegenerative disorders is desirable. In contrast, it is generally undesirable to have binding to hERG since binding to hERG can result in undesirable cardiac side effects. Therefore, having a low value for binding to Hsp90 and a high value for binding to hERG is desirable, bearing in mind that the units for the two measurement are different.

[1] = human cancer cell lysate (SKBr3), cy3B-GM displacement, 4° C., 24 h

hERG, sequence (Q12809 whole entry): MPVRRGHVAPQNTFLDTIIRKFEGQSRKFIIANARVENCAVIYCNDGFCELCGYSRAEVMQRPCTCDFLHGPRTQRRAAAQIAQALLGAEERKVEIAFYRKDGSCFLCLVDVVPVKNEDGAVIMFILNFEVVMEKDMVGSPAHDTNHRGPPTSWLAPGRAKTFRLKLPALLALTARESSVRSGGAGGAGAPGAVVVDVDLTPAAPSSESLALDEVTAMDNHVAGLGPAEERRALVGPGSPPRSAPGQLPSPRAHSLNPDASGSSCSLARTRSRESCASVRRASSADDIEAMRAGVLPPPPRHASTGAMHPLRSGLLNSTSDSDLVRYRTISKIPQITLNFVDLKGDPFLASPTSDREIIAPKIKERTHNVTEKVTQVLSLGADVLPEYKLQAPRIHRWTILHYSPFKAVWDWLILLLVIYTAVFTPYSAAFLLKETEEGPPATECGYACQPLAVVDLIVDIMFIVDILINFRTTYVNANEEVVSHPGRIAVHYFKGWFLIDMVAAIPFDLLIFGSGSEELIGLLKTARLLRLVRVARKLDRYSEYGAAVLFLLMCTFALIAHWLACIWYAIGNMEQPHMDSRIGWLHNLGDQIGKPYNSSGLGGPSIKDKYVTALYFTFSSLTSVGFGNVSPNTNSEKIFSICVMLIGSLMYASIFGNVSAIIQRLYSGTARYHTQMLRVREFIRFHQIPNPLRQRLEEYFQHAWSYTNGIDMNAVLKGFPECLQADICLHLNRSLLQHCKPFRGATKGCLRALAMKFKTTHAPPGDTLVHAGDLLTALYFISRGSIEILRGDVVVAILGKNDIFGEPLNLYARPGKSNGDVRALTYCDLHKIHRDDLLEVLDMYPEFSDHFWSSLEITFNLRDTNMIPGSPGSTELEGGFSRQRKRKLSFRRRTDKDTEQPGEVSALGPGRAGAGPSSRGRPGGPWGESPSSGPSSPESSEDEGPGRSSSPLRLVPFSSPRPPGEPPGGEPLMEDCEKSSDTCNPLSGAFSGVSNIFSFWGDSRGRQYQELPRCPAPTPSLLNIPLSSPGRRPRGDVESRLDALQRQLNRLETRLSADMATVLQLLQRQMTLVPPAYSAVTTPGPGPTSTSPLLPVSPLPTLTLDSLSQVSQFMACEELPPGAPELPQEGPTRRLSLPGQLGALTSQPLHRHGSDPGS

| Structure (SMILES) | IC50 (Hsp90; [1]) [nM] | hERG binding (hERG) [µM] | IC50 (Hsp90) [nM] |
| --- | --- | --- | --- |
| CC(C)NCCCn1c(Sc2cc3c(cc2N(C)C)OCO3)nc2c(N)ncnc21 [DZ4-134, 8-(6-(Dimethylamino)benzo[d][1,3]dioxol-5-ylthio)-9-(3-(isopropylamine)propyl)-9H-purin-6-amine] | 55.3 | 11.0 | – |
| CC(C)NCCCn1c(Sc2cc3c(cc2I)OCO3)nc2c(N)ncnc21 [PU-H71, reference compound] | – | 1 | […] |
| CN(C)c1cc2c(cc1Sc1nc3c(N)ncnc3n1CCCNC(C)(C)C)OCO2 [DZ4-135, 9-(3-(tert-Butylamino)propyl)-8-(6-(dimethylamino)benzo[d][1,3]dioxol-5-ylthio)-9H-purin-6-amine] | 45.4 | 14.0 | – |
